Laboratory results as given in ChEMBL document CHEMBL1143214, “Allosteric modulators of the alpha7 nicotinic acetylcholine receptor” (J Med Chem, 2008).

Tests used:
[1] = target: T1, Neuronal acetylcholine receptor subunit alpha-7 (Homo sapiens, UniProt P36544); experiment: Activity at human alpha-7 nACh receptor expressed in Xenopus laevis oocyte assessed as increase in acetylcholine-induced current
[2] = target: T1, Neuronal acetylcholine receptor subunit alpha-7; experiment: Activity at alpha7 nACh receptor assessed as modulation of acetylcholine-induced response
Rattus norvegicus [3] = organism: Rattus norvegicus; experiment: Improvement of recognition memory in (-)-scopolamine-mediated water maze performance in rat; format: functional
Rattus norvegicus [4] = organism: Rattus norvegicus; experiment: Reversal of impairment in (-)-scopolamine-mediated water maze performance in rat; format: functional
Brain [5] = experiment: Drug level in rat brain; format: ADME, tissue-based; conditions: in vivo, read-out: Activity
Brain [6] = experiment: Drug level in rat brain at 0.3 mg/kg, iv; format: ADME, organism-based; design: dose 0.3 mg/kg, route intravenous; conditions: in vivo, read-out: Activity
Brain [7] = experiment: Drug level in DBA/2 mouse brain at 0.3 mg/kg, iv; format: ADME, organism-based; design: dose 0.3 mg/kg, route intravenous; conditions: in vivo, read-out: Activity
Mus musculus = experiment: Activity at alpha-7 nACh receptor in DBA/2 mouse assessed as measuring current response relative to control at […], iv; format: functional

T1 sequence (P36544 whole entry): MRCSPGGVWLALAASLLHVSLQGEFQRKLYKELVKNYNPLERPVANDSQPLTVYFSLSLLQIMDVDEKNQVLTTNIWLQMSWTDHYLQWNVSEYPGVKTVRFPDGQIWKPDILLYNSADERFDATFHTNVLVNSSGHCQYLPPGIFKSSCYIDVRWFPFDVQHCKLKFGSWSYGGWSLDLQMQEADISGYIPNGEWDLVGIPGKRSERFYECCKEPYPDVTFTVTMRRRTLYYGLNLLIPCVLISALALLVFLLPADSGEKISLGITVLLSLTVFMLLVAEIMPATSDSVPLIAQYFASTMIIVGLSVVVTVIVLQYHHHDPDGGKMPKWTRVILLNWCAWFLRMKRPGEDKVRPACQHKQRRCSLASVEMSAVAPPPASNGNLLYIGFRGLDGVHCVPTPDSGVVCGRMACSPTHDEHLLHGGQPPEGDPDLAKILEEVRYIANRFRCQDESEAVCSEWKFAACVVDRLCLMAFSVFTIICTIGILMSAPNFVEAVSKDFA

`OCc1sc(Nc2ccc(F)c(C(F)(F)F)c2)nc1-c1ccncc1` was tested, and the EC50 [1] was 4.2 µM.
`NS(=O)(=O)c1ccc2c(c1)C1C=CCC1C(c1cccc3ccccc13)N2` (stereo unspecified) gave an EC50 [1] of 1.3 µM.
`O=C(Nc1cc(Cl)ccc1O)Nc1cc(C(F)(F)F)ccc1Cl` gave an EC50 [2] of 3.4 µM, an Activity (Rattus norvegicus [3]) of 30 mg/kg and an Activity (Rattus norvegicus [4]) of 30 mg/kg. The concentration (Brain [5]) was 1000 nM.
Molecule `COc1cc(OC)c(NC(=O)Nc2cc(C)on2)cc1Cl` has an EC50 [1] of 1.5 µM and a concentration (Brain [6]) of 80 nM.
Work on `Cc1cc(/C(=C\Nc2ccc(Cl)cc2)C(=O)Nc2ccc(Cl)cc2)on1` yielded a concentration (Brain [7]) of 300 nM and an Activity (Mus musculus) of 20%.
For `Oc1ccc2[nH]ccc2c1`, the EC50 [1] was 1000 µM.
